Reference: patent US12043601B2, “N-substituted-1H-1,2,4-triazole-3-carboxamides, analogues thereof, and methods of treatment using same” (THE REGENTS OF THE UNIVERSITY OF COLORADO, priority 2018, dated 2024)
Values after ≈ are worked out from the molar mass of the structure shown.

Assays:
Compound solubility = format: physicochemical; details: for Compound Solubility, 1 μM: solvent at 1 μM; for Compound Solubility, 10 μM: solvent at 10 μM; for Compound Solubility, 100 μM: solvent at 100 μM; for Compound Solubility, 1 mM: solvent at 1 mM; for Compound Solubility, 10 mM: solvent at 10 mM; for Compound Solubility, 16 mg/ml: solvent at 16 mg/ml
Salmonella strain 14028s = experiment: Minimum inhibitory concentration in EG minimal media; format: cell-based, Salmonella Typhimurium; details: 18 h; for Growth in EG at concentration tested 1 μg/ml / Growth in EG at concentration tested 2 μg/ml / Growth in EG at concentration tested 4 μg/ml / Growth in EG at concentration tested 8 μg/ml / Growth in EG at concentration tested 16 μg/ml / Growth in EG at concentration tested 32 μg/ml: EG minimal media, 37° C.; for MIC: Salmonella, 14028S
Method: DksA controls transcription of metabolic and virulence genes, allowing bacteria to both grow in minimum media and cause disease. Inhibition of bacterial growth in EG minimum media was used as an easy and reliable proxy of the DksA-dependent regulation of metabolism.
In a non-limiting example, wild-type Salmonella strain 14028s was grown overnight (18.5 h), and then diluted in EG minimal media to a density of about 10^5 CFU/mL. […] Each test tube was incubated at 37° C. with shaking for 18 h and bacterial growth was evaluated. The MIC value was determined as the lowest concentration of compound that inhibited growth.

DksA = DksA (Salmonella typhimurium, UniProt P0A1G5); experiment: DksA-dependent livJ in vitro transcription; format: biochemical; details: livJ promoter; for IVT: concentration showing activity
Method: To measure the potency of a compound in inhibition of DksA biological function, rpsMtranscripts in vitro was determined by non-radioactive in vitro transcription reactions with qPCR analysis with divergent compounds. Briefly, 5 nM pTIM-rpsMplasmid was mixed with […] of compounds in 10 μl reaction buffer (40 mM HEPES [pH 7.4], 2 mM MgCl2, 60 mM potassium glutamate, 0.05% NP-40, 200 μM ATP, 200 μM GTP, 200 μM CTP, 200 μM UTP, and 5 nM E. coli RNA polymerase holoenzyme (NEB, Ipswich, MA) with 5 μM DksA. The in vitro transcription was carried out at 37° C. for 10 min, and then terminated at 70° C. for 10 min. To remove template DNA after treated with DNaseI, DNA-free DNA Removal kit (ThermoFisher) was used according to manufacturer's direction. The resulting materials were used as templates to generate cDNA with 100 U MMLV reverse transcriptase (Promega), 0.45 μM gene specific primer, and 20 U RNase inhibitor (Promega). The amount of cDNA synthesized for 1 h at 42° C. was quantified by real-time PCR (qRT-PCR). The copy number of specific transcripts was calculated to the standard curve generated with known gene copy concentrations. The IC50 is the concentration at which the curve passes through the 50% inhibition level. Standard deviation was calculated from 3 independent experiments.
The compounds were initially tested at 0.1 μM and 1 μM using as a target the promoter of the livJ gene that encodes a transporter of branch-chain amino acids (Table 4).

Chain of DksA (P0A1G5 whole entry): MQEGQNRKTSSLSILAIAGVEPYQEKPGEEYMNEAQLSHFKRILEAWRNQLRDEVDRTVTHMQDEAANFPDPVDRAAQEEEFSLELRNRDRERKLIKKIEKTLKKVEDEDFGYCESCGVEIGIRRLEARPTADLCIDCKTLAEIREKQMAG

| SMILES | Compound Solubility, 1 μM (Compound solubility) | Compound Solubility, 10 μM (Compound solubility) | Compound Solubility, 100 μM (Compound solubility) | Compound Solubility, 1 mM (Compound solubility) | Compound Solubility, 10 mM (Compound solubility) | Compound Solubility, 16 mg/ml (Compound solubility) | Growth in EG at concentration tested 1 μg/ml (Salmonella strain 14028s) | Growth in EG at concentration tested 2 μg/ml (Salmonella strain 14028s) | Growth in EG at concentration tested 4 μg/ml (Salmonella strain 14028s) | Growth in EG at concentration tested 8 μg/ml (Salmonella strain 14028s) | Growth in EG at concentration tested 16 μg/ml (Salmonella strain 14028s) | Growth in EG at concentration tested 32 μg/ml (Salmonella strain 14028s) | In vitro transcription assay result, 0.1 μM (DksA) | In vitro transcription assay result, 1 μM (DksA) | IVT (DksA) [µM] | MIC (Salmonella strain 14028s) [µg/mL] |
| --- | --- | --- | --- | --- | --- | --- | --- | --- | --- | --- | --- | --- | --- | --- | --- | --- |
| O=C(Nc1cccc(OC(F)(F)F)c1)c1nc[nH]n1 [Compound 5, N-(3-(trifluoromethoxy)phenyl)-1H-1,2,4-triazole-3-carboxamide] | water | water | water | water | DMSO | DMSO | + | + | + | + | + | + | no induction | no induction | 0.1 | – |
| O=C(NCc1ccc2c(c1)OCO2)c1nc[nH]n1 [Compound 6, N-(benzo[d][1,3]dioxol-5-ylmethyl)-1H-1,2,4-triazole-3-carboxamide] | water | water | water | water | water | DMSO | + | + | – | – | – | – | no change | no change | – | 8 (≈ 32.5 µM) |
| COc1ccc(CNC(=O)c2nc[nH]n2)cc1C(F)(F)F [Compound 10, N-(4-methoxy-3-(trifluoromethyl)benzyl)-1H-1,2,4-triazole-3-carboxamide] | water | water | water | water | water | DMSO | + | + | + | + | + | + | no change | no induction | 1 | – |
| C[C@H](NC(=O)c1nc[nH]n1)c1ccccc1 [Compound 18, (S)-N-(1-phenylethyl)-1H-1,2,4-triazole-3-carboxamide] | water | water | water | water | water | DMSO | + | + | + | + | + | + | no induction | no induction | 0.1 | – |
| O=C(NCc1ccc(OC(F)(F)F)cc1)c1nc[nH]n1 [Compound 8, N-(4-(trifluoromethoxy)benzyl)-1H-1,2,4-triazole-3-carboxamide] | water | water | water | water | DMSO | DMSO | + | + | + | + | + | + | no induction | no induction | 0.1 | – |
| COc1ccc(CNC(=O)c2nc[nH]n2)cc1 [Compound 4, N-(4-methoxybenzyl)-1H-1,2,4-triazole-3-carboxamide] | water | water | water | water | water | DMSO | + | + | + | – | – | – | no change | no change | – | 8 (≈ 34.4 µM) |
| O=C(NCc1cccc(OC(F)(F)F)c1)c1nc[nH]n1 [Compound 9, N-(3-(trifluoromethoxy)benzyl)-1H-1,2,4-triazole-3-carboxamide] | water | water | water | water | DMSO | DMSO | + | + | + | + | + | + | no induction | Repression | 0.1 | – |
| COc1ccc([C@@H](C)NC(=O)c2nc[nH]n2)cc1 [Compound 22, (R)-N-(1-(4-methoxyphenyl)ethyl)-1H-1,2,4-triazole-3-carboxamide] | water | water | water | water | water | DMSO | + | + | + | + | + | + | no induction | no induction | 0.1 | – |
